According to patent US7045515B2, “β-lactam compounds process for reproducing the same and serum cholesterol-lowering agents containing the same” (Kotobuki Pharmaceutical Co., Ltd., priority 2001, dated 2006):

Molecule `CC(=O)OC[C@H]1O[C@@H](Cc2ccc([C@@H]3[C@@H](CCCc4ccc(F)cc4)C(=O)N3c3ccc(F)cc3)cc2)[C@H](OC(C)=O)[C@@H](OC(C)=O)[C@@H]1OC(C)=O` (relative stereo) [Compound 3, (3S,2R,4R,5R,6R)-2-[(4-{(4S*,3R*)-1-(4-Fluorophenyl)-3-[3-(4-fluorophenyl)propyl]-2-oxoazetidine-4-yl}phenyl)methyl]-4,5-diacetyloxy-6-(acetoxymethyl)perhydro-2H-pyran-3-ylacetate] has a melting point of 56 to 58 °C.
Molecule `O=C1[C@H](CCCc2ccc(F)cc2)[C@@H](c2ccc(C[C@@H]3O[C@H](CO)[C@@H](O)[C@H](O)[C@H]3O)cc2)N1c1ccc(Cl)cc1` (relative stereo) [Compound 4, (4S*,3R*)-4-(4-{[(2S,5S,3R,4R,6R)-3,4,5-Trihydroxy-6-(hydroxymethyl)perhydro-2H-pyran-2-yl]methyl}phenyl)-1-(4-chlorophenyl)-3-[3-(4-fluorophenyl)propyl]azetidine-2-one] has a melting point of 76 to 78 °C.
With `COc1ccc(N2C(=O)[C@H](CCCc3ccc(F)cc3)[C@H]2c2ccc(CC3O[C@H](CO)[C@@H](O)[C@H](O)[C@H]3O)cc2)cc1` (relative stereo) [Compound 5, (4S*,3R*)-4-(4-{[(5S,2R,3R,4R,6R)-3,4,5-Trihydroxy-6-(hydroxymethyl)perhydro-2H-pyran-2-yl]methyl}phenyl)-1-(4-methoxyphenyl)-3-[3-(4-fluorophenyl)propyl]azetidine-2-one] the melting point was 73 to 75 °C.
With `COc1ccc(N2C(=O)[C@H](CCCc3ccc(F)cc3)[C@H]2c2ccc(C[C@@H]3O[C@H](COC(C)=O)[C@@H](OC(C)=O)[C@H](OC(C)=O)[C@H]3OC(C)=O)cc2)cc1` (relative stereo) [Compound 6, (3S,2R,4R,5R,6R)-2-[(4-{(4S*,3R*)-1-(4-Methoxyphenyl)-3-[3-(4-fluorophenyl)propyl]-2-oxoazetidine-4-yl}phenyl)methyl]-4,5-diacetyloxy-6-(acetoxymethyl)perhydro-2H-pyran-3-ylacetate] the melting point was 60 to 62 °C.
`Cc1ccc(N2C(=O)[C@H](CCCc3ccc(F)cc3)[C@H]2c2ccc(CC3O[C@H](CO)[C@@H](O)[C@H](O)[C@H]3O)cc2)cc1` (relative stereo) [Compound 7, (4S*,3R*)-4-(4-{[(5S,2R,3R,4R,6R)-3,4,5-Trihydroxy-6-(hydroxymethyl)perhydro-2H-pyran-2-yl]methyl}phenyl)-1-(4-methylphenyl)-3-[3-(4-fluorophenyl)propyl]azetidine-2-one] showed a melting point of 80 to 82 °C.
In the case of `CC(=O)OC[C@H]1O[C@@H](Cc2ccc([C@@H]3[C@@H](CCCc4ccc(F)cc4)C(=O)N3c3ccc(C)cc3)cc2)[C@H](OC(C)=O)[C@@H](OC(C)=O)[C@@H]1OC(C)=O` (relative stereo) [Compound 8, (3S,2R,4R,5R,6R)-2-[(4-{(4S*,3R*)-1-(4-Methylphenyl)-3-[3-(4-fluorophenyl)propyl]-2-oxoazetidine-4-yl}phenyl)methyl]-4,5-diacetyloxy-6-(acetoxymethyl)perhydro-2H-pyran-3-ylacetate], the melting point is reported as 56 to 58 °C.
In the case of `O=C1[C@H](CCCc2ccc(F)cc2)[C@@H](c2ccc(CC3O[C@H](CO)[C@@H](O)[C@H](O)[C@H]3O)cc2)N1c1ccccc1` (relative stereo) [Compound 9, (4S*,3R*)-4-(4-{[(5S,2R,3R,4R,6R)-3,4,5-Trihydroxy-6-(hydroxymethyl)perhydro-2H-pyran-2-yl]methyl}phenyl)-1-phenyl-3-[3-(4-fluorophenyl)propyl]azetidine-2-one], the melting point is reported as 84 to 86 °C.
With `CC(=O)OC[C@H]1O[C@@H](Cc2ccc([C@@H]3[C@@H](CCCc4ccc(F)cc4)C(=O)N3c3ccccc3)cc2)[C@H](OC(C)=O)[C@@H](OC(C)=O)[C@@H]1OC(C)=O` (relative stereo) [Compound 10, (3S,2R,4R,5R,6R)-2-[(4-{(4S*,3R*)-1-phenyl-3-[3-(4-fluorophenyl)propyl]-2-oxoazetidine-4-yl}phenyl)methyl]4,5-diacetyloxy-6-(acetoxymethyl)perhydro-2H-pyran-3-ylacetate] the melting point was 60 to 61 °C.
`O=C1[C@H](CCCc2ccccc2)[C@@H](c2ccc(CC3O[C@H](CO)[C@@H](O)[C@H](O)[C@H]3O)cc2)N1c1ccc(F)cc1` (relative stereo) [Compound 11, (4S*,3R*)-4-(4-{[(5S,2R,3R,4R,6R)-3,4,5-Trihydroxy-6-(hydroxymethyl)perhydro-2H-pyran-2-yl]methyl}phenyl)-1-(4-fluorophenyl)-3-[3-(phenyl)propyl]azetidine-2-one] showed a melting point of 74 to 75 °C.
For `O=C1[C@H](CCOc2ccc(F)cc2)[C@@H](c2ccc(CC3O[C@H](CO)[C@@H](O)[C@H](O)[C@H]3O)cc2)N1c1ccc(F)cc1` (relative stereo) [Compound 12, (4S*,3R*)-4-(4-{[(5S,2R,3R,4R,6R)-3,4,5-Trihydroxy-6-(hydroxymethyl)perhydro-2H-pyran-2-yl]methyl}phenyl)-1-(4-fluorophenyl)-3-[2-(4-fluorophenoxy)ethyl]azetidine-2-one], the melting point was 65 to 67 °C.
Work on `O=C1[C@H](CCCc2ccc(F)cc2)[C@@H](c2ccc(OCC3O[C@H](CO)[C@@H](O)[C@H](O)[C@H]3O)cc2)N1c1ccc(F)cc1` (relative stereo) [Compound 14, (4S*,3R*)-4-(4-{[(4S,5S,2R,3R,6R)-3,4,5-Trihydroxy-6-(hydroxymethyl)perhydro-2H-pyran-2-yl]methoxy}phenyl)-1-(4-fluorophenyl)-3-[3-(4-fluorophenyl)propyl]azetidine-2-one] yielded a melting point of 61 to 62 °C.
In the case of `O=C1[C@H](CCCc2ccc(F)cc2)[C@@H](c2ccc(OCC3O[C@H](CO)[C@@H](O)[C@H](O)[C@H]3O)cc2)N1Cc1ccccc1` (relative stereo) [Compound 16, (4S*,3R*)-4-(4-{[(4S,5S,2R,3R,6R)-3,4,5-Trihydroxy-6-(hydroxymethyl)perhydro-2H-pyran-2-yl]methoxy}phenyl)-1-phenylmethyl-3-[3-(4-fluorophenyl)propyl]azetidine-2-one], the melting point is reported as 73 to 75 °C.
In the case of `CCOC(=O)C(C)(C)Oc1ccc(N2C(=O)[C@H](CCCc3ccc(F)cc3)[C@H]2c2ccc(C[C@@H]3O[C@H](CO)[C@@H](O)[C@H](O)[C@H]3O)cc2)cc1` (relative stereo) [Compound 18, 2-{4-[(4S*,3R*)-4-{[(5S,2R,3R,4R,6R)-3,4,5-Trihydroxy-6-(hydroxymethyl)perhydro-2H-pyran-2-yl]methyl}phenyl-3-[3-(4-fluorophenyl)propyl]-2-oxoazetidinyl]phenoxy}-2-methylpropionic acid ethyl ester], the melting point is reported as 73 to 74 °C.
In the case of `CC(C)(Oc1ccc(N2C(=O)[C@H](CCCc3ccc(F)cc3)[C@H]2c2ccc(C[C@@H]3O[C@H](CO)[C@@H](O)[C@H](O)[C@H]3O)cc2)cc1)C(=O)O` (relative stereo) [Compound 19, 2-{4-[(4S*,3R*)-4-{[(5S,2R,3R,4R,6R)-3,4,5-Trihydroxy-6-(hydroxymethyl)perhydro-2H-pyran-2-yl]methyl}phenyl-3-[3-(4-fluorophenyl)propyl]-2-oxoazetidinyl]phenoxy}-2-methylpropionic acid], the melting point is reported as 170 to 172 °C.
